The record followed here is patent US20040110637A1, “Method of safening crops using isoxazoline carboxylates” (priority 2001, published 2004).

Common to all, as to format: in vivo
The subject of one experiment is corn (variety Dea). Briefly: Corn seed treatment with safener, then post-emergence herbicide H3 (diflufenzopyr + dicamba sodium salts); visual crop injury. The procedure:
(§1) The number of crop seeds that would be needed for each safener rate was calculated. Based on the weight of 100 seeds, sufficient seeds were weighed into screw top glass bottles approximately twice the volume of the seeds.
(§2) The prospective safeners were formulated as wettable powders or water dispersible granules. These formulations were weighed out so that the required rates (g a.i./kg seed) would be obtained. The samples were added to the seeds in the bottles and then sufficient water added to produce a slurry. The bottles were capped and then placed in an overhead shaker (set at medium speed for up to 1 hour) so that the seeds were evenly coated with the slurry. The bottles were uncapped and the seeds used in the pre- or post-emergence tests as described in sections 1.2 and 1.3.
(§3) As an alternative seed treatment method, active ingredient of the prospective safeners was weighed and dissolved in a solvent (e.g. acetone) and added to the seeds in the bottles. […]
(§4) In tests in which larger quantities of seeds required treatment, the prospective safeners, either as formulated samples in water or as active ingredient dissolved in solvent were applied to seeds using a mini-rotostat apparatus. […]
(§5) Corn seeds were treated according to example 1.1. […] After 3 to 4 weeks the results were visually scored in comparison with control plants (without seed treatment and herbicide treatment).

Experiment [1] deals with HORVS = Hordeum vulgare (barley), variety Boroness. Put plainly: Barley seed treatment with safener, then pre-emergence herbicide H2 (metolachlor); visual crop injury. Conditions: for Safener effect in % reduction in crop injury: HORVS. The procedure:
as §1, §2
(§6) As an alternative seed treatment method, active ingredient of the prospective safeners was weighed and dissolved in a solvent (e.g. acetone) and added to the seeds in the bottles. The solvent type and volume was selected based on prior experience so that it would have no negative impact on seed germination or subsequent plant growth. After shaking for up to 1 hour (overhead shaker) the seeds were spread out on paper in a fume cabinet to allow the remaining solvent to evaporate. The seeds were then used in the pre- or post-emergence tests as described in sections 1.2 and 1.3.
(§7) In tests in which larger quantities of seeds required treatment, the prospective safeners, either as formulated samples in water or as active ingredient dissolved in solvent were applied to seeds using a mini-rotostat apparatus. The seeds were allowed to dry for a short time before being used in the pre- or post-emergence tests as described in sections 1.2 and 1.3.
(§8) The safener treated seeds and untreated comparison seeds were sown into 7 to 13 cm round pots in a sandy loam soil and covered with approximately 0.5 to 1 cm of a 1 to 1 mix of sandy loam soil and sand. Herbicidal substances, as liquid (e.g. Emulsifiable concentrates) or dry (e.g. wettable powder) formulations, were diluted to the required concentrations in deionised water and applied to the soil surface using a track sprayer calibrated to deliver 300 to 800 litres of spray solution per hectare.
(§9) The pots were placed under good growing conditions in a glasshouse and a visual assessment of herbicidal effects made after 3 to 4 weeks after herbicide application. Assessment was on a percentage basis in comparison with untreated control plants (0%=no injury, 100%=complete kill).
Wheat or barley seeds were treated according to example 1.1. […] After 3 to 4 weeks the results were visually scored in comparison with control plants (without seed treatment and herbicide treatment).

Experiment [2] has as its system TRZAS, Triticum aestivum (wheat), variety Ralle. Briefly: Wheat seed treatment with safener, then pre-emergence herbicide H2 (metolachlor); visual crop injury. To be noted: for Safener effect in % reduction in crop injury: TRZAS. The procedure: as §1, §2, §6, §7, §8, §9
Wheat or barley seeds were treated according to example 1.1. After sowing the herbicide was applied pre-emergent on the soil surface as described in example 1.2. After 3 to 4 weeks the results were visually scored in comparison with control plants (without seed treatment and herbicide treatment).

The test system of experiment [3] is ZEAMA = Zea mays (maize), variety Lorenzo. Briefly: Corn seed treatment with safener, then pre-emergence herbicide H1 (isoxaflutole); visual crop injury. To be noted: safener seed treatment 0.1 g a.i./kg seed + Herbicide H1 pre-emergent 100 g a.i./ha. The procedure: as §1, §2, §3, §4, §5
[4] abbreviates: safener seed treatment 0.5 g a.i./kg seed + Herbicide H2 pre-emergent 700 g a.i./ha.
The mark [5] stands for this setting: safener seed treatment 1 g a.i./kg seed + Herbicide H2 pre-emergent 700 g a.i./ha.
Setting [6] is: safener seed treatment 2 g a.i./kg seed + Herbicide H2 pre-emergent 700 g a.i./ha.

For the molecule `CCOC(=O)C1=NOC(c2ccccc2)(c2ccccc2)C1` [(lb)], the “% injury to corn (variety Dea)” value in the experiment on corn (variety Dea) (safener seed treatment 0.01 g a.i./kg seed + Herbicide H3 500 g a.i./ha (head: pre-emergent; text: post-emergent at 2 to 3-leaf stage)) turned out to be 10%. Further, the “Safener effect in % reduction in crop injury” value in the experiment on corn (variety Dea) (safener seed treatment 0.01 g a.i./kg seed + Herbicide H3 500 g a.i./ha, corn variety Dea) worked out at 57%; in experiment [1] (setting [4]) it was 100%; in experiment [1] (setting [5]), 100%; in experiment [2] (setting [4]) it was 86%; in experiment [2] (setting [5]), 73%; in experiment [2] (setting [6]), 79%. Further, the “Safener effect in % reduction in crop injury” value in experiment [3] (ZEAMA) came out at 71%. The “% injury to HORVS” value in experiment [1] (setting [4]) and in experiment [1] (setting [5]) was 0% throughout. The “% injury to TRZAS” value in experiment [2] (setting [4]) was 10%; in experiment [2] (setting [5]), 20%; in experiment [2] (setting [6]), 15%. In experiment [3] (after 3 to 4 weeks), the “% injury to ZEAMA” value worked out at 10%.
